Reference: patent US20080070942A1, “PRAZOLE DERIVATIVES AND SALTS THEREOF AND USE OF SAME” (JIANGSU HANSEN PHARMACEUTICAL CO., LTD., priority 2004, published 2008)
Marks after values point to notes of the source that are not given here.

What was measured:
[1] = system: gastric acid secretion model induced by pylorus ligation in rats; assay: Effect on gastric acid secretion model induced by pylorus ligation in rats; type: in vivo, Wistar rat; conditions: pylorus-ligated rats, 5 hours after operation
Procedure: Wistar rat, weight 180-220 g, male, obtained from Institute of Zoology, Chinese Academy of Medical Sciences. Sodium rabeprazole, compound (II) of the present invention and tenatoprazole, provided by Jiangsu Hansen Pharmaceutical Co., Ltd. Added 1 drop of Tween-80 as a solubilizing assistant and prepared the required concentrations with distilled water. Methods: 48-hour fasting rats were divided into groups randomly. Pylon ligation was carried out under ether anaesthesia. […] The rats were sacrificed at 5 hours after the operation and the gastric juice was collected and measured. The content of HCl in gastric juice is determined by titration with 0.1 mol/L NaOH and the significance test was made by t-programme.

[2] = system: gastric ulcer model induced by anhydrous ethanol in rats; assay: Gastric ulcer model induced by anhydrous ethanol in rats; type: in vivo, Wistar rat; set-up: Ulcer area: unit not given beside the values; conditions: for ulcer areas, effect in words: anhydrous ethanol ulcer
Procedure: Wistar rat, weight: 180-220 g, male, obtained from Institute of Zoology, Chinese Academy of Medical Sciences. Compound (I) and Compound (II) of the present invention and sodium rabeprazole, provided by Jiangsu Hansen Pharmaceutical Co., Ltd. The required concentration is prepared with distilled water and the volume for administration of drug is 10 ml/kg. Methods: 40-hour fasting rats were randomly divided into groups and treated with different doses of sodium rabeprazole, compound (I), compound (II) and distilled water (as control) by gastric perfusion, respectively. After 0.5 hour, each rat was administered with 1 ml anhydrous ethanol and then rats were sacrificed 1 hour later. The stomachs were taken out and injected with 10 ml fix solution. After fixed in 3% formaldehyde solution, the stomachs were dissected and the ulcer areas were measured. The significance test was made by t-programme.

[3] = system: gastric ulcer model induced by acetic acid in rats; assay: Chronic gastric ulcer model induced by acetic acid in rats; type: in vivo; conditions: x ± s
Procedure: Methods: Abdominal cavities of fasting rats were cut under the anaesthesia of sodium pentobarbital and gently stretched the stomachs. The glandular stomachs near pylons were injected with 20 μl 30% acetic acid and then the abdominal cavities were re-closed. At the day the operation finished, rats were randomly divided into groups and started to be administered with drugs of 10 ml/kg once a day for 10 continuous days. Rats were then sacrificed in the following day when the last drug was administered, and stomachs were taken out and were injected with 10 ml water, and then were put into 3% formaldehyde solution to be fixed for 30 minutes. The stomachs were dissected along their greater curvatures and stretched on a glass plate and the ulcer areas were measured. The significance test was made by t-programme.

[4] = system: ulcer model induced by indomethacin in rats; assay: Gastric ulcer model induced by indomethacin in rats; type: in vivo, Wistar rats
Procedure: Wistar rats, weight: 180-220 g, same number of male and female, provided by Institute of Zoology, Chinese Academy of Medical Sciences. (Certification of Qualification of Animal: scxk Beijing 2000-0006) 0.5% methylcellulose sodium: 2 g/L NaHCO3 is contained and pH value is adjusted to 9.0 with NaOH. Preparation: The drug was porphyrized and diluted with 0.5% methylcellulose sodium to the required concentration. It must be used up in 30 minutes. Methods: Sixty 48-hour fasting rats were divided into six groups and gastric-perfused with different doses of compound (II), sodium rabeprazole and 0.5% methylcellulose sodium (as control), respectively. After 0.5 hour, 20 mg/kg indomethacin was injected into the abdominal cavities. Six hours later, rats were sacrificed by cervical dislocation and the stomachs were taken out. After injected with 10 ml water, stomachs were then fixed in 3% formaldehyde solution. The hemorrhagic spots were counted. A significance test was carried out by t-programme.

[5] = system: ulcer rat models induced by pylori ligation; assay: Ulcer model induced by pylori ligation in rats; type: in vivo
Procedure: Methods: Sixty 40 hour-fasting rats were divided into 6 groups according to Table 2. A pylori ligation operation was carried out under the anaesthesia of ether. […] The stomachs were dissected and the number of gastric ulcers was counted. The result was tested by a significance test of t-programme.

in vivo = conditions: dog, 5 mg/kg
Procedure: Methods: Six healthy male beagle dogs with weight 5.5˜6.7 kg were randomly divided into three groups for triple cross over administration. They were perfused with rabeprazole, tenatoprazole and compound (II) respectively after one-night fasting. The dose of each drug was 5 mg/kg. Each dog was fed with 50 ml water by gastric perfusion after administration of the drug. 2 ml blood was taken respectively from forelimb saphenous vein at 0.25, 0.5, 1, 2, 3, 4, 5, 6, 7, 8, 10, 12 hours after tenatoprazole was administered, at 5, 10, 20, 30, 40, 50, 60, 75, 90, 120, 180 minutes after rabeprazole was administered, and at 1, 2, 3, 3.5, 4, 4.5, 5, 6, 7, 8, 10, 12 hours after compound (II) was administered, and then put each blood sample in each test tube treated with EDTA, then centrifuging for 10 min at 3500 rpm. The upper plasma was removed from the test tube into another test tube containing 50 μl 2% NaOH solution and reserved at −20[…]. The plasma drug concentration was determined by HPLC. Cross-over administration to dogs was performed one week later.
The calculation method for pharmacokinetic parameters: compartment model is estimated by software DAS1.0. […] T½=0.693/λz, Tmax and Cmax are are measured values.

[6] = 6.7 μmol/kg through the duodenum
[7] = 20.0 μmol/kg through the duodenum
[8] = 3 mg/kg by gastric perfusion 0.5 hour before 1 ml anhydrous ethanol
[9] = 10 mg/kg by gastric perfusion 0.5 hour before 1 ml anhydrous ethanol
[10] = 20 μmol/kg once a day for 10 days
[11] = 60 μmol/kg once a day for 10 days

Compound	Amount of gastric acid [1, 6] [mmol/stomach]	Amount of gastric juice [1, 6] [ml/stomach]	Amount of gastric acid [1, 7] [mmol/stomach]	Amount of gastric juice [1, 7] [ml/stomach]	Ulcer area [2, 8]	Ulcer area [2, 9]	ulcer areas, effect in words [2]	Ulcer area [3, 10] [mm^2]	Ulcer area [3, 11]	other results
COCCCOc1ccnc(C[S+]([O-])c2nc3ccccc3[nH]2)c1C (stereo not drawn) [Sodium Rabeprazole]	0.25 ± 0.10	4.0 ± 0.7	0.17 ± 0.08	3.7 ± 0.8	26.4 ± 20.6	11.1 ± 2.7	reduced	6.2 ± 3.5	4.8 ± 3.1** mm^2	No. of ulcers ([4]; 40 μmol/kg gastric perfusion, indomethacin 20 mg/kg, x ± s): 3.1 ± 4.6; Inhibition rate ([4]; 40 μmol/kg, indomethacin ulcer): 72.3%; hemorrhagic spots on gastric mucosal induced by indomethacin, effect in words ([4]; gastric perfusion): lower than that of compound (II); No. of ulcers ([5]; 40 μmol/kg through duodenum, pylori ligation, 18 hours, x ± s): 8.9 ± 14.7; Inhibition rate ([5]; 40 μmol/kg, pylori ligation ulcer): 63.2%; ulcers in the rats, effect in words ([5]; pylori ligation ulcer): essentially same function
COCCCOc1ccnc(C[S+]([O-])c2nc3ccccc3[nH]2)c1C (stereo not drawn) [rabeprazole]										half life (in vivo): less than half hour
COCCCOc1ccnc(C[S+]([O-])c2nc3cc(OC(F)F)ccc3[n-]2)c1C.[Na+] (stereo not drawn) [Compound (I)]					12.1 ± 18.1	5.5 ± 9.9	more significant effect			
COc1ccc2[nH]c([S+]([O-])Cc3ncc(C)c(OC)c3C)nc2n1 (stereo not drawn) [Tenatoprazole, tenatoprazole]	0.16 ± 0.06	2.8 ± 0.7	0.14 ± 0.03	2.8 ± 0.5				7.6 ± 3.6	5.8 ± 3.6* mm^2	AUC (in vivo; male, beagle, po, AUC): 18000 ng·h/mL; AUC (in vivo; male, beagle, po, AUC^12): 16900 ng·h/mL; Cmax (in vivo; male, beagle, po, Cmax): 4280 ng/mL; MRT (in vivo; male, beagle, po, MRT): 5.4 h; half-life (in vivo; male, beagle, po, T1/2): 224 min
